According to US9951044B2, “Quinazoline derivatives and their use as DNA methyltransferase inhibitors” (PIERRE FABRE MEDICAMENT, priority 2013, dated 2018):

Columns and labels:
[1] = system: PANC1 cells (human pancreatic carcinoma cells); assay: Anti-proliferative activity on PANC1 cells (ATPlite one step); format: cell-based; details: PANC-1, 72 h incubation
Experimental: (§1) The antiproliferative activity of compounds was measured in vitro using the ATP quantification method “ATPlite one step assay” (Perkin Elmer ref 6016739) according to the manufacturer conditions.
(§2) Briefly, WM266.4 cells (human melanoma cells) (5×10^4 cells per ml in RPMI1640 medium, 10% FBS, 2 mM glutamine, 50 U/mL penicillin/streptomycin and 1.25 μg/mL fungizone), PANC1 cells (human pancreatic carcinoma cells) (2×10^4 cells per ml in DMEM medium, 10% FBS, 2 mM glutamine, 50 U/mL penicillin/streptomycin and 1.25 μg/mL fungizone), and U87MG cells (human neuronal gliablastoma-astrocytoma-cells) (3×10^4 cells per ml in MEM medium, 10% FBS, 2 mM glutamine, 50 U/mL penicillin/streptomycin and 1.25 μg/mL fungizone) were seeded in 96-well plates, incubated for 24 h and treated with 8 increasing concentrations of test compounds diluted in cells respective mediums, or vehicle in triplicate.
(§3) Cells were then incubated for 72 h at 37° C. in humidified 5% CO2 atmosphere.
(§4) At the end of the experiment, cell viability was evaluated by determining the level of ATP released by viable cells.
(§5) EC50 values were determined with curve fitting analysis method (non linear regression model with a sigmoid dose response, variable Hill slope coefficient) provided by the Prism Software (GraphPad). […]

[2] = biological target: T1, human C-terminal DNMT3A (a.a. 623-908) (Homo sapiens, UniProt Q9Y6K1); assay: DNMT3A assay (restriction-based fluorescence); format: biochemical; details: for inhibition at 10 µM: compound at 10 μM, read-out: DNMT3A (% of inhibition) 10 μM; for inhibition at 20 µM: compound at 20 μM; for EC50: concentration range in triplicates; for inhibition at 32 µM: compound at 32 μM, read-out: DNMT3A (% of inhibition) 32 μM
T1 construct: The human C-terminal DNMT3A (a.a. 623-908); made in house
T1 sequence (Q9Y6K1 627-912 limits assumed): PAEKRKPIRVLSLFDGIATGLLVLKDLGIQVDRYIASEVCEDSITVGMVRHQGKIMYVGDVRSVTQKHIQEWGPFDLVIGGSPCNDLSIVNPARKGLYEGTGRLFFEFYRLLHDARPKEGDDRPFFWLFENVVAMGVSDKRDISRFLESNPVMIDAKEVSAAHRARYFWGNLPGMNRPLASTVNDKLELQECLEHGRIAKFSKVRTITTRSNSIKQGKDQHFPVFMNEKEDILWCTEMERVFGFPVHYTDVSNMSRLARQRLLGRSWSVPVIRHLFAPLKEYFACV
From the text: DNMT3A enzyme inhibition was adapted from the restriction-based fluorescence assay protocol described in Ceccaldi et al. (ChemBioChem 2011, 12, 1337-45). Briefly, a 5′-labelled biotin oligonucleotide is hybridized to its complementary strand labelled with 6-carboxyfluorescein at the 3′-end into a 384 well microplate (black Optiplates; Perkin Elmer) pre-coated with avidin. The duplex contains a unique CpG site overlapping with a restriction site of a methylation sensitive restriction enzyme. The human C-terminal DNMT3A (a.a. 623-908), produced as described in Gros et al. (Nucleic Acids Research 2013 Aug. 25), was added in each well (200 ng/well) and mixed with the chemical compounds at desired concentrations and freshly prepared AdoMet (20 μM final concentration) to start the reaction in a total volume of 50 μL. After 1 hour incubation at 37° C. each well were washed three times with PBS, Tween-20 0.05%, NaCl (500 mM) and three more times with PBST. Specific fluorescent signals were detected with the methylation-sensitive restriction enzyme HpyCH4IV (NEB) as described and measured on a Perkin Elmer Envision detector. The percentage of inhibition is reported. The formula used to calculate the percentage of inhibition is [(X−Y)/X]×100, where X is the signal determined in the absence of the inhibitor and Y is the signal obtained in the presence of the inhibitor. The concentration at which 50% of efficacy of inhibition is observed (EC50) was determined by analysis of a concentration range of the tested compound in triplicates. The non-linear regression fittings with sigmoidal dose-response (variable slope) were performed with GraphPad Prism 4.03 (GraphPad Software).

[3] = system: Karpas299 human leukemia cells; assay: Anti-proliferative activity on Karpas 299 cells (ATPLite); format: cell-based; details: KARPAS-299, 96 h, treatment days 1-3, viability day 4, mean of at least two experiments, 95% confidence interval in brackets
Experimental: (§6) KG-1 and Karpas299 human leukemia cells were obtained from the ATCC (USA) and cultivated in RPMI 1640 medium (with HEPES and Glutamine, BE12-115F, Lonza, France) supplemented with, respectively, 20% and 15% foetal calf serum (Lonza, France), at 37° C. and under 5% CO2. To measure the anti-proliferative properties of tested molecules, 2×10^4 cells are seeded at day 0 in a 96 wells plate. The compounds to be tested, stored at −20° C. as 10^−2 M stock solution in 100% DMSO, are freshly diluted on day 1 in RPMI 1640 medium, before adding a dose range of 3.2 nM to 10 μM to the cells. This treatment is repeated on day 2 and 3, and on day 4 cell viability is assessed using the ATPLite kit from Perkin (ATPlite 1 Step Luminescence Assay System, ref 3016739), following the provider instructions. The raw data are analyzed with GraphPad Prism software (v4.03) to generate EC50 values corresponding to the compound concentrations giving 50% reduction in cell viability. The values presented are the mean results of at least two independent experiments.

[4] = system: WM266.4 cells (human melanoma cells); assay: Anti-proliferative activity on WM266.4 cells (ATPlite one step); format: cell-based; details: WM 266-4, 72 h incubation, read-out: EC50 (μM) WN226.4
Experimental: as §1, §2, §3, §4, §5

[5] = biological target: T2, His-DNMT1 (182 kDa, human) (Homo sapiens, UniProt P26358); assay: DNMT1 assay ([methyl-3H] SAM Flashplate); format: biochemical; details: for inhibition at 32 µM: compound at 32 μM, read-out: DNMT1 (% of inhibition) 32 μM; for inhibition at 100 µM: compound at 100 μM, read-out: DNMT1 (% of inhibition) 100 μM
T2 construct: His; made in house
T2 sequence (P26358 whole entry): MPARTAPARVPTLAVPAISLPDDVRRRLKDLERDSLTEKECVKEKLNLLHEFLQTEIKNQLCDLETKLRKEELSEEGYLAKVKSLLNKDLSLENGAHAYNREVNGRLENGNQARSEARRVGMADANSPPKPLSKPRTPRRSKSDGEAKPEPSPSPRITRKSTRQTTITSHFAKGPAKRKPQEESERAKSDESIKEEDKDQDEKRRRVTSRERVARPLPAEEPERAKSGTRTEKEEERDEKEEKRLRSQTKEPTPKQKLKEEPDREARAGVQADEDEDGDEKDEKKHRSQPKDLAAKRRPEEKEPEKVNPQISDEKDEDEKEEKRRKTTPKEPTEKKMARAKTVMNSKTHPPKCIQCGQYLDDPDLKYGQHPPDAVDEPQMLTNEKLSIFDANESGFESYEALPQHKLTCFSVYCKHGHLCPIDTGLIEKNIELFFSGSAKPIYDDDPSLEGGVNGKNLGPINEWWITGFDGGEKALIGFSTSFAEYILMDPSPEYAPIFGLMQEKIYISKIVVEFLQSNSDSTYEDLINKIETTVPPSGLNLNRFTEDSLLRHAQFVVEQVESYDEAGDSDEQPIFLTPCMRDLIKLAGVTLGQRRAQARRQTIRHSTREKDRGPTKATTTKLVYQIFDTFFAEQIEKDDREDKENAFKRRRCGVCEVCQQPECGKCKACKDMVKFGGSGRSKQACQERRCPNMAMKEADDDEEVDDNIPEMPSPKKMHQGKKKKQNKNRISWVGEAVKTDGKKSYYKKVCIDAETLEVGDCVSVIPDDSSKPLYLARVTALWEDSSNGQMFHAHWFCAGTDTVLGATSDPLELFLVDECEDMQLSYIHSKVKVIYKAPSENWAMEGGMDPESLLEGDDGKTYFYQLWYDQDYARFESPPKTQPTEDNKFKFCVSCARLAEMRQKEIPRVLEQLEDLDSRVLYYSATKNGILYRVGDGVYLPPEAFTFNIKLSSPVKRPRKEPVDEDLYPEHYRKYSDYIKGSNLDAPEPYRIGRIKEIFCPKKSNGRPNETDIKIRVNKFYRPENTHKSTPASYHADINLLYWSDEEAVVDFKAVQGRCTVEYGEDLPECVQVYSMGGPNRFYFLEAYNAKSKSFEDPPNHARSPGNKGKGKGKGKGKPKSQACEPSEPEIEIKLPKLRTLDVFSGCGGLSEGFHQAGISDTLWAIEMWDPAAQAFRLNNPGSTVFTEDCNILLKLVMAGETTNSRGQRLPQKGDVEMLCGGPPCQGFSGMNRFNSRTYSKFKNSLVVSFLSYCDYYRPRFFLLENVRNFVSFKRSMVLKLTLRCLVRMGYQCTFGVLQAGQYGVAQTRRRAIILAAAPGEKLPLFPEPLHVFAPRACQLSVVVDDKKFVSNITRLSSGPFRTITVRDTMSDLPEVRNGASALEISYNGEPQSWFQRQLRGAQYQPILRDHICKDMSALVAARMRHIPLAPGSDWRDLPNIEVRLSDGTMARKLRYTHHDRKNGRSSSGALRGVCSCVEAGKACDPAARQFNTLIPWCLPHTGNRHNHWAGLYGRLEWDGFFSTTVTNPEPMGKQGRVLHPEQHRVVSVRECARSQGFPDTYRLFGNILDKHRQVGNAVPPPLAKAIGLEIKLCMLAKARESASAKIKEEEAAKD
Experimental: His-DNMT1 (182 kDa, human) was cloned, expressed and purified as described in Halby et al. (ChemBioChem 2012, 13, 157-65). The reaction was performed in a 10 μL total reaction volume in low volume NBS™ 384-well microplates (Corning), containing the tested compound (up to 1% DMSO), 1 μM of a SAM/[methyl-^3H] SAM (3 TBq/mmol, PerkinElmer) mix in a ratio of 3-to-1 (isotopic dilution 1*:3), 0.3 μM of biotinylated hemimethylated DNA duplex (5′-GATmCGCmCGATGmCGmCGAATmCGmCGAT mCGATGmCGAT-3′ and BIOT-5′-[…] ATC-3′), and 90 nM of DNMT1 in methylation buffer (20 mM HEPES pH 7.2, 1 mM EDTA, 50 mM KCl, 25 μg/mL BSA). The reaction was incubated at 37° C. for 2 hours. 8 μL are then transferred into a streptavidin 96-well scintillant coated Flashplate™ (PerkinElmer) containing 190 μL of 20 μM SAH in 50 mM Tris-HCl pH 7.4. The Flashplate™ was agitated at room temperature for 1 hour, washed three times with 200 μL of 0.05% Tween®-20 in 50 mM Tris-HCl pH 7.4, and read in 200 μL of 50 mM Tris-HCl pH 7.4 on TopCount NXT (PerkinElmer).

[6] = system: U87MG cells (human neuronal gliablastoma-astrocytoma-cells); assay: Anti-proliferative activity on U87MG cells (ATPlite one step); format: cell-based; details: U-87 MG, 72 h incubation
Experimental: as §1, §2, §3, §4, §5

[7] = system: KG-1 human leukemia cells; assay: Anti-proliferative activity on KG-1 cells (ATPLite); format: cell-based; details: KG-1, 96 h, treatment days 1-3, viability day 4, mean of at least two experiments, 95% confidence interval in brackets
Experimental: as §6

Which EC50 [1] does the source give for c1ccc(CCCNc2ncnc3cc(OCC4CCN(CCNc5ccnc6ccccc56)CC4)ccc23)cc1 [Compound G, 4-((3-phenylpropyl)amino)-7-((1-(2-(quinolin-4-ylamino)ethyl)piperidin-4-yl)methoxy)quinazoline] here?
Its EC50 is 1.2 µM.

What about the inhibition at 10 µM [2] of the same molecule?
The inhibition at 10 µM was 81%.

And the inhibition at 20 µM [2]?
The inhibition at 20 µM was 97%.

What about the EC50 [2] of the same molecule?
The EC50 was 2400 nM.

What about the EC50 [3] of the same molecule?
Its EC50 is 1.8 µM.

And the EC50 [4]?
Its EC50 is 3.9 µM.

And the inhibition at 32 µM [5]?
The inhibition at 32 µM was 24.5%.

What about the inhibition at 100 µM [5] of the same molecule?
The inhibition at 100 µM was 91.2%.

What about the EC50 [6] of the same molecule?
The EC50 was 8.9 µM.

What about the EC50 [7] of the same molecule?
Its EC50 is 0.5 µM.

Which results are given for CCCNc1ncnc2cc(OCC3CCN(CCNc4ccnc5ccccc45)CC3)ccc12 [Compound H, 4-propylamino-7-((1-(2-(quinolin-4-ylamino)ethyl)piperidin-4-yl)methoxy)quinazoline]?
inhibition at 10 µM [2]: 28%; inhibition at 20 µM [2]: 44%; inhibition at 32 µM [2]: 69%; inhibition at 100 µM [5]: 94.9%

Which results are given for Nc1ncnc2cc(OCC3CCN(CCNc4ccnc5ccccc45)CC3)ccc12 [Compound I, 4-amino-7-((1-(2-(quinolin-4-ylamino)ethyl)piperidin-4-yl)methoxy)quinazoline]?
inhibition at 10 µM [2]: 16%; inhibition at 20 µM [2]: 32%; inhibition at 32 µM [2]: 68%; inhibition at 100 µM [5]: 99.3%

How did the inhibition at 10 µM [2] turn out when c1ccc(CCCNc2ncnc3cc(OCC4CCN(CCNc5ccncc5)CC4)ccc23)cc1 [Compound J, 4-(3-phenylpropylamino)-7-((1-(2-(pyridin-4-ylamino)ethyl)piperidin-4-yl)methoxy)quinazoline] was run?
Its inhibition at 10 µM is 47%.

And the inhibition at 20 µM [2]?
Its inhibition at 20 µM is 65%.

What about the inhibition at 32 µM [2] of the same molecule?
Its inhibition at 32 µM is 72%.

What about the inhibition at 100 µM [5] of the same molecule?
The inhibition at 100 µM was 33.7%.

Which results are given for O=c1c2ccc(OCC3CCN(CCNc4ccnc5ccccc45)CC3)cc2ncn1CCNc1ccnc2ccccc12 [Compound M]?
inhibition at 10 µM [2]: 89%; inhibition at 32 µM [2]: 91%; EC50 [2]: 1100 nM; EC50 [3]: 0.7 µM; inhibition at 32 µM [5]: 100%; inhibition at 100 µM [5]: 100%; EC50 [7]: 1.3 µM

Which inhibition at 10 µM [2] does the source give for c1ccc(-c2ccc(CNc3ncnc4cc(OCC5CCN(CCNc6ccnc7ccccc67)CC5)ccc34)cc2)cc1 [Compound N, 4-([1,1′-biphenyl]-4-ylmethylamino)-7-((1-(2-(quinolin-4-ylamino)ethyl)piperidin-4-yl)methoxy)quinazoline] here?
The inhibition at 10 µM was 86%.

And the inhibition at 32 µM [2]?
Its inhibition at 32 µM is 83%.

And the inhibition at 32 µM [5]?
Its inhibition at 32 µM is 24%.

What about the inhibition at 100 µM [5] of the same molecule?
The inhibition at 100 µM was 69%.

And the EC50 [7]?
The EC50 was 0.4 µM.

For c1ccc(CCNc2ncnc3cc(OCC4CCN(CCNc5ccnc6ccccc56)CC4)ccc23)cc1 [Compound O, 4-(3-phenethylamino)-7-((1-(2-(quinolin-4-ylamino)ethyl)piperidin-4-yl)methoxy)quinazoline], which inhibition at 10 µM [2] is on record?
The inhibition at 10 µM was 80%.

And the inhibition at 32 µM [2]?
The inhibition at 32 µM was 99%.

And the inhibition at 32 µM [5]?
Its inhibition at 32 µM is 38%.

What about the inhibition at 100 µM [5] of the same molecule?
Its inhibition at 100 µM is 98.4%.

For c1ccc(CNc2ncnc3cc(OCC4CCN(CCNc5ccnc6ccccc56)CC4)ccc23)cc1 [Compound P, 4-(3-benzylamino)-7-((1-(2-(quinolin-4-ylamino)ethyl)piperidin-4-yl)methoxy)quinazoline], which inhibition at 10 µM [2] is on record?
The inhibition at 10 µM was 43%.

And the inhibition at 32 µM [2]?
Its inhibition at 32 µM is 81%.

And the EC50 [2]?
Its EC50 is 13100 nM.

And the inhibition at 32 µM [5]?
The inhibition at 32 µM was 26%.

And the inhibition at 100 µM [5]?
The inhibition at 100 µM was 22%.

Cc1cc(NCCNc2ncnc3cc(OCC4CCN(CCNc5ccnc6ccccc56)CC4)ccc23)nc(N)n1 [Compound Q, 6-methyl-N^4-(2-((7-((1-(2-(quinolin-4-ylamino)ethyl)piperidin-4-yl)methoxy)quinazolin-4-yl)amino)ethyl)pyrimidine-2,4-diamine] was tested. Which inhibition at 10 µM [2] did it give?
The inhibition at 10 µM was 61%.

And the inhibition at 32 µM [2]?
Its inhibition at 32 µM is 68%.

And the EC50 [2]?
Its EC50 is 5700 nM.

And the inhibition at 32 µM [5]?
The inhibition at 32 µM was 74%.

What about the inhibition at 100 µM [5] of the same molecule?
Its inhibition at 100 µM is 99.6%.

Which inhibition at 10 µM [2] does the source give for O=c1c2ccc(OCC3CCN(CCNc4ccnc5ccccc45)CC3)cc2ncn1CCCc1ccccc1 [Compound R, 3-(3-phenylpropyl)-7-((1-(2-(quinolin-4-ylamino)ethyl)piperidin-4-yl)methoxy)quinazolinone] here?
The inhibition at 10 µM was 65%.

And the inhibition at 32 µM [2]?
Its inhibition at 32 µM is 99%.

What about the inhibition at 32 µM [5] of the same molecule?
Its inhibition at 32 µM is 45%.

What about the inhibition at 100 µM [5] of the same molecule?
The inhibition at 100 µM was 98.4%.

What does the source list for c1ccc(CCCNc2ncnc3cc(OCCNc4ccnc5ccccc45)ccc23)cc1 [Compound S, 4-(3-phenylpropylamino)-7-(2-(quinolin-4-ylamino)ethoxy)quinazoline]?
inhibition at 10 µM [2]: 52%; inhibition at 32 µM [2]: 95%; inhibition at 100 µM [5]: 90%
